# Laboratory results from PMC7409020, “Tumor-Targeting Peptides: The Functional Screen of Glioblastoma Homing Peptides to the Target Protein FABP3 (MDGI)” (Cancers, 2020).
# Square brackets hold non-standard residues; d marks the D form. Peptide text beside a SMILES is read from it.
# Biological target: T1, recombinant FABP3 (Homo sapiens, UniProt P05413)
# T1 construct: made in house; host or cells: Escherichia coli BL21 (DE3)
# Experiment: Microscale thermophoresis (MST) binding to NT-650-NHS-labeled FABP3
# Settings: 20 nM labeled FABP3; peptide 500 µM to 0.0153 µM, two-fold dilutions; PBS-tween 20 pH 7.4; 25 °C; 40% MST power; 1:1 fit; mean ± SD of three independent experiments
# Procedure: For the binding affinity measurements between the recombinant FABP3 and the A-CooP, its variants, and the control peptide, we used the microscale thermophoresis. […] For these analyses, FABP3 was labeled with an NT-650-NHS fluorescence. Two-fold serially diluted peptides ranging from 500 µM to 0.0153 µM were titrated against a constant FABP3 concentration (20 nM). The binding events were generated following changes in fluorescence (ΔFnorm) against peptide concentrations. Subsequently, the equilibrium dissociation constant (KD) was calculated using a 1:1 fit model from the law of mass action. The MST binding affinities (KD values) are represented in a bar graph (Figure 4B). The smallest KD value equals the best affinity, and the highest value is the lowest affinity. […] The changes in fluorescence (ΔFnorm) were normalized to the bound fraction (Figure 4C). The data points towards 1 were considered bound fractions, while data points less than 1 represented the unbound fractions.
# FABP3 was labeled with a second-generation red amine-reactive NT-650-NHS fluorescent dye using the Nanotemper labeling kit (MO-L011; Nanotemper, https://nanotempertech.com/). The protein/dye concentration ratio and volume ratio were 1:3 and 1:1, respectively, in accordance with the manufacturer’s instructions. The actual concentration and degree of labeling (DOL) were determined using the extinction coefficient Ɛ280 = 18450 M^−1 cm^−1 for FABP3 and Ɛ650 =195000 M^−1 cm^−1 for the NT650 dye. Using the correction factor of 0.04 at 280 nm, the DOL for all labeling reactions was calculated according to manufacturer’s instructions. Binding experiments were carried out in a PBS-tween 20 buffer (10 mM Na2HPO4, 140 mM NaCl, 2.7 mM KCl, 0.05% tween 20, pH 7.4). The binding assay was performed with a fixed concentration (20 nM) of the fluorescently labeled FABP3 (target) and two-fold serially diluted decreasing concentrations (500 µM to 0.0153 µM) of the unlabeled A-CooP variants (ligand). The reaction mixture of 16 serial diluents of A-CooP or its analogues and FABP3 were filled into the capillary tubes (Nanotemper, MO-K022) and loaded in the Monolith NT 115 instrument accordingly. All experiments were carried out at 25 °C, 40% MST power (medium), and 60% LED power. Binding assay and measurements were performed in triplicates for each experimental setup.
# T1 sequence (P05413 whole entry): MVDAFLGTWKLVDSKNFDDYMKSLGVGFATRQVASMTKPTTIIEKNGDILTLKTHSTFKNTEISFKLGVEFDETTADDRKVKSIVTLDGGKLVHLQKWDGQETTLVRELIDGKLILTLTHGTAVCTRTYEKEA
row,Kd [nM],Compound
1,70 ± 10,CC(C)C[C@H](NC(=O)CNC(=O)[C@H](CO)NC(=O)[C@H](CC(C)C)NC(=O)CNC(=O)[C@H](CS)NC(=O)[C@H](C)N)C(=O)NCC(=O)N[C@H](C(=O)N[C@@H](C)C(=O)N[C@@H](CCCCN)C(N)=O)C(C)C [A-CooP-K] (H-ACGLSGLGVAK-NH2)
2,2180 ± 1150,CC(C)C[C@H](NC(=O)CNC(=O)[C@H](CO)NC(=O)[C@H](CC(C)C)NC(=O)CNC(=O)[C@H](CS)NC(=O)[C@H](C)N)C(=O)NCC(=O)N[C@H](C(=O)N[C@@H](C)C(N)=O)C(C)C [A-CooP] (H-ACGLSGLGVA-NH2)
3,90 ± 70,CC(C)C[C@H](NC(=O)CNC(=O)[C@H](CO)NC(=O)[C@H](CC(C)C)NC(=O)[C@H](C)NC(=O)[C@H](CS)NC(=O)[C@H](C)N)C(=O)NCC(=O)N[C@H](C(=O)N[C@@H](C)C(N)=O)C(C)C [A-[Ala^2]CooP] (H-ACALSGLGVA-NH2)
4,250 ± 140,CC(C)C[C@H](NC(=O)CNC(=O)[C@H](CO)NC(=O)[C@H](C)NC(=O)CNC(=O)[C@H](CS)NC(=O)[C@H](C)N)C(=O)NCC(=O)N[C@H](C(=O)N[C@@H](C)C(N)=O)C(C)C [A-[Ala^3]CooP] (H-ACGASGLGVA-NH2)
5,190 ± 30,CC(C)C[C@H](NC(=O)CNC(=O)[C@H](CS)NC(=O)[C@H](C)N)C(=O)N[C@@H](CO)C(=O)NCC(=O)N[C@@H](C)C(=O)NCC(=O)N[C@H](C(=O)N[C@@H](C)C(N)=O)C(C)C [A-[Ala^6]CooP] (H-ACGLSGAGVA-NH2)
6,133000 ± 75000,CC(C)C[C@H](NC(=O)CNC(=O)[C@H](CO)NC(=O)[C@H](CC(C)C)NC(=O)CNC(=O)[C@H](CS)NC(=O)[C@H](C)N)C(=O)N[C@@H](C)C(=O)N[C@H](C(=O)N[C@@H](C)C(N)=O)C(C)C [A-[Ala^7]CooP] (H-ACGLSGLAVA-NH2)
7,120 ± 50,CC(C)C[C@H](NC(=O)CNC(=O)[C@H](CO)NC(=O)[C@H](CC(C)C)NC(=O)CNC(=O)[C@H](CS)NC(=O)[C@H](C)N)C(=O)NCC(=O)N[C@@H](C)C(=O)N[C@@H](C)C(N)=O [A-[Ala^8]CooP] (H-ACGLSGLGAA-NH2)
8,630 ± 130,CC(C)C[C@H](NC(=O)CNC(=O)[C@H](CO)NC(=O)[C@H](CC(C)C)NC(=O)CNC(=O)[C@H](CS)NC(=O)[C@H](C)NC(=O)[C@@H](N)CCCCN)C(=O)NCC(=O)N[C@H](C(=O)N[C@@H](C)C(N)=O)C(C)C [KA-CooP] (H-KACGLSGLGVA-NH2)
9,24000 ± 13000,CC(C)C[C@@H](NC(=O)CNC(=O)[C@H](NC(=O)[C@@H](C)N)C(C)C)C(=O)NCC(=O)N[C@H](CO)C(=O)N[C@H](CC(C)C)C(=O)NCC(=O)N[C@H](CS)C(=O)N[C@H](C)C(N)=O [RI-A-CooP] (H-[dA][dV]G[dL]G[dS][dL]G[dC][dA]-NH2)
